A word on the Ki: it is a measure of affinity in units of concentration, obtained from inhibition or displacement.

Here are results for twelve compounds from patent US20170239237A1, “PYRROLOQUINOLINE DERIVATIVES AS 5-HT6 ANTAGONISTS, PREPARATION METHOD AND USE THEREOF” (Uniwersytet Jagiellonski, priority 2013, published 2017).

Structures are written as SMILES. Where two headings read alike, the source gives them in different places. Marks after values point to notes of the source that are not given here.

Experiment [1] has as its system Wistar rats. Kind of experiment: Conflict drinking test (Vogel test) in Wistar rats. It counts as in vivo, rat. The settings on record: for Minimum effective dose, conflict drinking (Vogel test) in rats (potential anxiolytic properties): IP, 60 minutes before the test, Wistar rats. Here is the method: (§1) For intraperitoneal (i.p.) administration: to the desired quantity of the solid compound in a glass beaker, required volume of sterile water for injection was added and swirled with glass bar until complete dissolution of the compound.
(§2) Animals. Male Wistar rats weighing 220-250 g were used in the test. […] All animals were kept in an environmentally controlled rooms (ambient temperature 22±2° C; relative humidity 50-60%; 12:12 light:dark cycle, lights on at 8:00). They were allowed to acclimatize with the environment for one week before commencement of the experiments. Standard laboratory food (Ssniff M-Z) and filtered water were freely available. The experiments were conducted in the light phase between 09.00 and 14.00 hours. 1 h before the start of the experiment, rats were transferred to the experimental room for acclimation.
Apparatus and procedure. […] Experimental chambers were connected to PC software by control chassis and electric shocks' generator. On the first day of the experiment, the rats were adapted to the test chambers for 10 min. […] Afterwards, they were allowed a 30-min free-drinking session in their home cages. […] Recording data started immediately after the first lick and every 20 licks rats were punished with an electric shock (0.5 mA, lasting 1 s). The impulses were released via the spout of the drinking bottles. If a rat was drinking when an impulse was released, it received a shock. The number of licks and the number of shocks received during a 5-min experimental session was recorded automatically.
(§3) Experimental design. The compounds were administered IP, 60 minutes before the test.
(§4) Drugs. The experimental compounds were dissolved in the distilled water. All compounds were administrated in the volume of 2 ml/kg.

In experiment [2] the target is T1, 5-HT6 receptor (Homo sapiens, UniProt P50406). Kind of experiment: Radioligand binding, 5-HT6 ([3H]-LSD displacement). The settings on record: for displacement % at 10^−6M, 5-HT6: values marked c in the 5-HT6 column.
The target of the next experiment is dopamine D2L receptor (Homo sapiens, UniProt P14416). The experiment is described as follows: Radioligand binding, D2 ([3H]-raclopride displacement).
For another experiment, the target named is T2, 5-HT1A receptor (Homo sapiens, UniProt P08908).
T2 sequence (P08908 1-422): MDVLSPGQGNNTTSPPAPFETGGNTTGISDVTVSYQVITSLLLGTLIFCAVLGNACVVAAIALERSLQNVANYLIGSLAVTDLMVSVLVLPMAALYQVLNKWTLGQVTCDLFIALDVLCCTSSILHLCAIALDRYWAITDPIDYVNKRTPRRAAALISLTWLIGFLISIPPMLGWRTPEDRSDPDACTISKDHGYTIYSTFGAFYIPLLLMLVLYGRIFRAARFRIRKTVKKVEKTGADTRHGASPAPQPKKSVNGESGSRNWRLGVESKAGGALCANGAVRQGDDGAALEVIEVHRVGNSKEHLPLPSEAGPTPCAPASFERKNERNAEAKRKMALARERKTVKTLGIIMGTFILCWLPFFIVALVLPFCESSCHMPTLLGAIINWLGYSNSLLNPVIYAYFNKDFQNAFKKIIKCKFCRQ
The experiment is described as follows: Radioligand binding, 5-HT1A ([3H]-8-OH-DPAT displacement).

Experiment [3] deals with T1, 5-HT6 receptor. The experiment is described as follows: CHO-human-5HT6-Aequorin functional assay (ago-/antagonism). The settings on record: test concentration not given; for % inhibition of control agonist response: agonist effect, CHO-human-5HT6-Aequorin cells; for % inhibition of control antagonist response: antagonist effect vs 10^-6 M α-methylserotonin induced luminescence.

The target of a further experiment is 5-HT7 receptor (Homo sapiens, UniProt P34969). The experiment is described as follows: Radioligand binding, 5-HT7 ([3H]-5-CT displacement).
For experiment [4], the system named is Wistar rats. Kind of experiment: Forced swim test (FST) in Wistar rats. It counts as in vivo, rat. The settings on record: IP, 60 minutes before the test; Wistar rats. Here is the method: as §1, §2
Apparatus and procedure. […] On the first day of experiment, the animals were gently individually placed in Plexiglas cylinders (40 cm high, 18 cm in diameter) containing 15 cm of water maintained at 25° C. for 15 min. Upon removal from water, the rats were placed in a Plexiglas box for 30 min under a 60-W bulb to dry off. On the following day, the rats were placed again in the cylinder and the total duration of immobility was recorded throughout the 5-min test period. Fresh water was used for each animal.
as §3, §4

Where [5] appears, read: read-out: Ki 5-HT1A, cloned human receptor in HEK293, three independent experiments, SEM ± 22%.
Where [6] appears, read: read-out: Ki 5-HT6, cloned human receptor in HEK293, three independent experiments, SEM ± 22%.

T1 sequence (P50406 whole entry): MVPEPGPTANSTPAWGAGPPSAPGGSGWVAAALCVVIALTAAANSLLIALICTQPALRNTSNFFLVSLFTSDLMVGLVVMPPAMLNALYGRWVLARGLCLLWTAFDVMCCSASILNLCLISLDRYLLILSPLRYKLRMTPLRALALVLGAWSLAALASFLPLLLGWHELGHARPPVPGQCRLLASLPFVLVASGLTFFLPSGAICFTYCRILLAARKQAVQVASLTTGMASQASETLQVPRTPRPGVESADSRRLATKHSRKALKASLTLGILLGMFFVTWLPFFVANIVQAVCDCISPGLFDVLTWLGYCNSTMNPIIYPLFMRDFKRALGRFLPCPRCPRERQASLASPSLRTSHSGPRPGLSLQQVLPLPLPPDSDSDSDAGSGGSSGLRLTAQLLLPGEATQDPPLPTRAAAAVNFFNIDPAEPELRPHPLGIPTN
Chain of 5-HT7 receptor (P34969 1-432 limits assumed): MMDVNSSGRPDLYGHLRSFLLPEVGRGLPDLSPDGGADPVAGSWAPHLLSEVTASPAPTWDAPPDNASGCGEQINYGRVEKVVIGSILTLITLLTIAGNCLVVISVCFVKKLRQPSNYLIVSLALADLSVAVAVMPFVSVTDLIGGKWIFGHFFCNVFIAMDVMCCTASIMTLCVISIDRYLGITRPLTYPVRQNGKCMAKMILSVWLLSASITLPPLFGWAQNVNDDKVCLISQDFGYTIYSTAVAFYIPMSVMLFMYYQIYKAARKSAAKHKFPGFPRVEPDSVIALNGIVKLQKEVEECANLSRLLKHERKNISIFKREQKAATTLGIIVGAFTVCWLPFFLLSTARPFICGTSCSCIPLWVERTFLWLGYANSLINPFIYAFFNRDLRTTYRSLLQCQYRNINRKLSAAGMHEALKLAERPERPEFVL
Chain of dopamine D2L receptor (P14416 whole entry): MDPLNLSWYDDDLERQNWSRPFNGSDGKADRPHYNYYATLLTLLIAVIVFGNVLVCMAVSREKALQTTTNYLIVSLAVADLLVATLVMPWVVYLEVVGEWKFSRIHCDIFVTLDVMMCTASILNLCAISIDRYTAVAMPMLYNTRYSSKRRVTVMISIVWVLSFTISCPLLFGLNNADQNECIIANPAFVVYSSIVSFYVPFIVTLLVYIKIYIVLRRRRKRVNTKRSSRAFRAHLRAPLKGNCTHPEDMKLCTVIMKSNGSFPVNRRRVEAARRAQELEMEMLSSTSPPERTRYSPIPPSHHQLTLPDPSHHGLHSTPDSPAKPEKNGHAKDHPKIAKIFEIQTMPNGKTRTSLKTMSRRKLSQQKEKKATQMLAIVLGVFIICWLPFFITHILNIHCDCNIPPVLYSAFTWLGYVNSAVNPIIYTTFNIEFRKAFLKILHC

As to `O=S(=O)(c1cccc(F)c1)n1ccc2c(N[C@@H]3CCNC3)nc3ccccc3c21` [Compound 10, (R)-1-((3-fluorophenyl)sulfonyl)-N-(pyrrolidin-3-yl)-1H-pyrrolo[3,2-c]quinolin-4-amine], in the experiment on Wistar rats [1], the “Minimum effective dose, conflict drinking (Vogel test) in rats (potential anxiolytic properties)” value was 10 mg/kg. For the same compound, the “displacement % at 10^−6M, 5-HT6” value on 5-HT6 receptor [2] is 100^c %.

Turning to `O=S(=O)(c1cccc2ccccc12)n1ccc2c(NC3CCNC3)nc3ccccc3c21` (stereo not drawn) [Compound 21, 1-(naphthalen-1-ylsulfonyl)-N-(pyrrolidin-3-yl)-1H-pyrrolo[3,2-c]quinolin-4-amine], the Ki at dopamine D2L receptor was 2260 nM; at 5-HT1A receptor, 5330 nM; at 5-HT6 receptor [2], 19 nM; on 5-HT7 receptor it was 1420 nM. Also, on 5-HT6 receptor [3], the “% inhibition of control agonist response” value came out at 10.6%. The “% inhibition of control antagonist response” value at 5-HT6 receptor [3] was found to be 60.0%.

For the compound `O=S(=O)(c1cccc2cccnc12)n1ccc2c(NC3CCNC3)nc3ccccc3c21` (stereo not drawn) [Compound 22, 1-(quinolin-8-ylsulfonyl)-N-(pyrrolidin-3-yl)-1H-pyrrolo[3,2-c]quinolin-4-amine], the Ki on dopamine D2L receptor came to 6400 nM; on 5-HT1A receptor, 15200 nM; on 5-HT6 receptor [2], 4 nM; at 5-HT7 receptor it was 18500 nM. The “% inhibition of control agonist response” value at 5-HT6 receptor [3] is listed as 16.4%. The “% inhibition of control antagonist response” value at 5-HT6 receptor [3] worked out at 70.2%.

Take `O=S(=O)(c1cccc(F)c1)n1ccc2c(N3CCNCC3)nc3ccccc3c21` [Compound 30, 1-((3-fluorophenyl)sulfonyl)-4-(piperazin-1-yl)-1H-pyrrolo[3,2-c]quinoline]: the “Minimum effective dose, forced swim test in rats (potential antidepressant properties)” value in the experiment with Wistar rats [4] amounted to 10 mg/kg. Moreover, in the experiment on Wistar rats [1], the “Minimum effective dose, conflict drinking (Vogel test) in rats (potential anxiolytic properties)” value was found to be 10 mg/kg. Also, at 5-HT1A receptor (setting [5]), the Ki was determined as 437 nM.

Regarding `N#Cc1cccc(S(=O)(=O)n2ccc3c(N4CCNCC4)nc4ccccc4c32)c1` [Compound 38, 1-((3-cyanophenyl)sulfonyl)-4-(piperazin-1-yl)-1H-pyrrolo[3,2-c]quinoline], the Ki at dopamine D2L receptor amounted to 4690 nM; on 5-HT1A receptor it was 218 nM; on 5-HT6 receptor [2], 14 nM; on 5-HT7 receptor, 2390 nM. Further, the “% inhibition of control agonist response” value on 5-HT6 receptor [3] came to 7.0%. For the same compound, the “% inhibition of control antagonist response” value at 5-HT6 receptor [3] was found to be 61.3%.

Take `CC(C)c1ccc(S(=O)(=O)n2ccc3c(N4CCNCC4)nc4ccccc4c32)cc1` [Compound 40, 1-((4-isopropylphenyl)sulfonyl)-4-(piperazin-1-yl)-1H-pyrrolo[3,2-c]quinoline]: the Ki was 2540 nM at dopamine D2L receptor, 148 nM on 5-HT1A receptor, 14 nM on 5-HT6 receptor [2] (setting [6]) and 3260 nM at 5-HT7 receptor. On 5-HT6 receptor [3], the “% inhibition of control agonist response” value was −5.2%. Besides, the “% inhibition of control antagonist response” value on 5-HT6 receptor [3] was determined as 65.3%.

For `Nc1ccc(S(=O)(=O)n2ccc3c(N4CCNCC4)nc4ccccc4c32)cc1` [Compound 42, 1-(4-(aminophenyl)sulfonyl)-4-(piperazin-1-yl)-1H-pyrrolo[3,2-c]quinoline], the “Minimum effective dose, forced swim test in rats (potential antidepressant properties)” value with Wistar rats [4] amounted to 0.1 mg/kg. The “Minimum effective dose, conflict drinking (Vogel test) in rats (potential anxiolytic properties)” value in the experiment with Wistar rats [1] turned out to be 3 mg/kg. Also, at 5-HT6 receptor [2], the “displacement % at 10^−6M, 5-HT6” value was 97^c %.

In the case of `O=S(=O)(c1cccc2cccnc12)n1ccc2c(N3CCNCC3)nc3ccccc3c21` [Compound 45, 1-(quinolin-8-ylsulfonyl)-4-(piperazin-1-yl)-1H-pyrrolo[3,2-c]quinoline], the Ki turned out to be 6340 nM at dopamine D2L receptor, 922 nM at 5-HT1A receptor, 5 nM at 5-HT6 receptor [2] and 7810 nM on 5-HT7 receptor. Further, the “% inhibition of control agonist response” value at 5-HT6 receptor [3] was 7.8%. Further, the “% inhibition of control antagonist response” value on 5-HT6 receptor [3] amounted to 75.8%.

Take `Cc1c(S(=O)(=O)n2ccc3c(N4CCNCC4)nc4ccccc4c32)sc2ccc(Cl)cc12` [Compound 48, 1-((5-chloro-3-methylbenzo[b]thiophen-2-yl)sulfonyl)-4-(piperazin-1-yl)-1H-pyrrolo[3,2-c]quinoline]: the Ki at dopamine D2L receptor amounted to 190 nM; on 5-HT1A receptor, 1470 nM; on 5-HT6 receptor [2], 16 nM; at 5-HT7 receptor it was 8820 nM. Also, on 5-HT6 receptor [3], the “% inhibition of control agonist response” value came out at 2.7%. Further, the “% inhibition of control antagonist response” value at 5-HT6 receptor [3] is listed as 37.7%.

In the case of `CN1CCN(c2nc3ccccc3c3c2ccn3S(=O)(=O)c2cccc3cccnc23)CC1` [Compound 59, 1-(quinolin-8-ylsulfonyl)-4-(4-methylpiperazin-1-yl)-1H-pyrrolo[3,2-c]quinolone], the Ki was 1920 nM at dopamine D2L receptor (read-out: Ki D2, cloned human receptor in HEK293, three independent experiments, SEM ± 22%); 208 nM at 5-HT1A receptor (setting [5]); less than 1 nM at 5-HT6 receptor [2] (setting [6]); 7690 nM at 5-HT7 receptor (read-out: Ki 5-HT7, cloned human receptor in HEK293, three independent experiments, SEM ± 22%). Further, the “% inhibition of control agonist response” value at 5-HT6 receptor [3] came out at 16.9%. The “% inhibition of control antagonist response” value on 5-HT6 receptor [3] is given as 61.0%.

Consider `O=S(=O)(c1cccc(Cl)c1)n1ccc2c(N3CCOCC3)nc3ccccc3c21` [Compound 78, 1-((3-chlorophenyl)sulfonyl)-4-(morpholine-4-yl)-1H-pyrrolo[3,2-c]quinoline], for which the Ki stood at 37200 nM at dopamine D2L receptor, 457000 nM on 5-HT1A receptor, 157 nM on 5-HT6 receptor [2] and 20100 nM on 5-HT7 receptor. Also, the “% inhibition of control agonist response” value on 5-HT6 receptor [3] is given as 21.3%. Further, the “% inhibition of control antagonist response” value at 5-HT6 receptor [3] worked out at 23.8%.

Take `CN1C(=O)CN=C(c2ccccc2)c2cc(Cl)ccc21` [diazepam, reference compound]: the “active dose in the conflict drinking test (Vogel test), increasing number of licks and shocks received” value in the experiment on Wistar rats [1] (rats) fell in the range of 5 to 10 mg/kg.
